These compounds were tested against T1, Monoaminoxidase A (Rattus norvegicus, UniProt P21396) (assay: biochemical). Settings: monoaminoxidase A, rat brain homogenate, 14C-tryptamine 0.4 μmol/liter, 37° C., 20 minutes; read-out: Monoaminoxidase inhibition IC50.
T1 sequence (P21396 1-526): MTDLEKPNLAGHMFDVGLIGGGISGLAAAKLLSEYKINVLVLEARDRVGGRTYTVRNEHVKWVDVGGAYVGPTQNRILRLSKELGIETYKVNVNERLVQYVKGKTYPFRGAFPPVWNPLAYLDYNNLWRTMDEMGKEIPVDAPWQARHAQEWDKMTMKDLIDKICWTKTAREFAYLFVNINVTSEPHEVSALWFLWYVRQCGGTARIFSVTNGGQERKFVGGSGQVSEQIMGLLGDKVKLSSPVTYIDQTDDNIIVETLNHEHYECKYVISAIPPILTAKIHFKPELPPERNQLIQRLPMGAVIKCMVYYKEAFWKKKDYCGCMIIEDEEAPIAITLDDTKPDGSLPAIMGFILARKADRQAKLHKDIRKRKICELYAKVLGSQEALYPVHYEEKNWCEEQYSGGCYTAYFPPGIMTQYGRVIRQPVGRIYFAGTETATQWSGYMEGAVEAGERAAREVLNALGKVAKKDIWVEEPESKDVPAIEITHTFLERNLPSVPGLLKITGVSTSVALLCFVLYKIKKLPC
Method: Monoaminoxidase A is determined in dilute rat brain homogenate to which
1. various concentrations of the test substances and
2. ^14 C-tryptamine in a concentration of 0.4 μmol/liter are added. This mixture is incubated at 37° C. for 20 minutes, after which the reaction is terminated by means of aqueous 0.1N HCl, and the products are extracted with toluene scintillator (PPO+POPOP in toluene) and then determined. The blank value is determined in similar mixtures for an incubation time of t=0 minutes.
The mean inhibitory concentration (IC50) is calculated from the inhibitory values determined, in comparison with the control, at the various inhibitor concentrations, by means of a linear regression after logit-log transformation.
Work on `Cc1c(C)c2ccc(OS(=O)(=O)c3cccc4ccccc34)cc2oc1=O` [Example 3, 7-Hydroxy-3,4-dimethylcoumarin naphthalene-1'-sulfonate] yielded an IC50 of 0.076 µM.
For `Cc1c(C)c2ccc(OS(=O)(=O)c3ccccc3[N+](=O)[O-])cc2oc1=O` [Example 6, 7-Hydroxy-3,4-dimethylcoumarin 2'-nitrobenzenesulfonate], the IC50 was 0.11 µM.
With `Cc1c(C)c2ccc(OS(=O)(=O)c3ccc(OC(F)(F)C(F)F)cc3)cc2oc1=O` [Example 8, 7-Hydroxy-3,4-dimethylcoumarin 4'-(α,α,β,β-tetrafluoroethoxy)-benzenesulfonate] the IC50 was 0.16 µM.
With `Cc1cc(C)c(S(=O)(=O)Oc2ccc3c(C)c(C)c(=O)oc3c2)c(C)c1` [Example 12, 7-Hydroxy-3,4-dimethylcoumarin 2',4',6'-trimethylbenzenesulfonate] the IC50 was 0.051 µM.
`Cc1c(C)c2ccc(OS(=O)(=O)c3cc(Cl)ccc3Cl)cc2oc1=O` [Example 13, 7-Hydroxy-3,4-dimethylcoumarin 2',5'-dichlorobenzenesulfonate] showed an IC50 of 0.027 µM.
`CC(=O)Nc1ccc(S(=O)(=O)Oc2ccc3c(C)c(C)c(=O)oc3c2)cc1` [Example 15, 7-Hydroxy-3,4-dimethylcoumarin 4'-acetylaminobenzenesulfonate] showed an IC50 of 0.62 µM.
`Cc1cc2ccc(OS(=O)(=O)c3ccc(Br)cc3)cc2oc1=O` [Example 19, 7-Hydroxy-3-methylcoumarin 4'-bromobenzenesulfonate] showed an IC50 of 0.0098 µM.
Work on `Cc1cc2ccc(OS(=O)(=O)c3ccccc3)cc2oc1=O` [Example 20, 7-Hydroxy-3-methylcoumarin benzenesulfonate] yielded an IC50 of 0.067 µM.
`O=c1oc2cc(OS(=O)(=O)c3ccccc3)ccc2c2c1CCCC2` [Example 21, 7-Hydroxy-3,4-tetramethylenecoumarin benzenesulfonate] was tested, and the IC50 was 0.55 µM.
With `CCCS(=O)(=O)Oc1ccc2c(C)c(C)c(=O)oc2c1` [Example 22, 7-Hydroxy-3,4-dimethylcoumarin propanesulfonate] the IC50 was 0.0096 µM.
`Cc1c(C)c2ccc(OS(=O)(=O)C(C)C)cc2oc1=O` [Example 23, 7-Hydroxy-3,4-dimethylcoumarin isopropanesulfonate] showed an IC50 of 0.0037 µM.
Work on `Cc1c(C)c2ccc(OS(=O)(=O)C(F)(F)F)cc2oc1=O` [Example 24, 7-Hydroxy-3,4-dimethylcoumarin trifluoromethanesulfonate] yielded an IC50 of 0.075 µM.
For `Cc1c(C)c2ccc(OS(=O)(=O)Cc3ccccc3)cc2oc1=O` [Example 25, 7-Hydroxy-3,4-dimethylcoumarin phenylmethanesulfonate], the IC50 was 0.077 µM.
`CCCCS(=O)(=O)Oc1ccc2c(C)c(C)c(=O)oc2c1` [Example 26, 7-Hydroxy-3,4-dimethylcoumarin butanesulfonate] gave an IC50 of 0.0073 µM.
`CCCCCCCCS(=O)(=O)Oc1ccc2c(C)c(C)c(=O)oc2c1` [Example 27, 7-Hydroxy-3,4-dimethylcoumarin octanesulfonate] gave an IC50 of 0.034 µM.
`O=c1oc2cc(OS(=O)(=O)c3ccc(Br)cc3)ccc2c2c1CCCC2` [Example 28, 7-Hydroxy-3,4-tetramethylenecoumarin 4'-bromobenzenesulfonate] gave an IC50 of 0.29 µM.
`O=c1oc2cc(OS(=O)(=O)c3ccc(Cl)cc3)ccc2c2c1CCCC2` [Example 29, 7-Hydroxy-3,4-tetramethylenecoumarin 4'-chlorobenzenesulfonate] was tested, and the IC50 was 0.11 µM.
`Cc1cc2ccc(OS(=O)(=O)c3ccc(Cl)cc3)cc2oc1=O` [Example 30, 7-Hydroxy-3-methylcoumarin 4'-chlorobenzenesulfonate] was tested, and the IC50 was 0.0063 µM.
`CCc1cc(=O)oc2cc(OS(=O)(=O)c3ccc(Cl)cc3)ccc12` [Example 31, 4-Ethyl-7-hydroxycoumarin 4'-chlorobenzenesulfonate] gave an IC50 of 0.03 µM.
Compound `CCc1cc(=O)oc2cc(OS(=O)(=O)c3ccccc3)ccc12` [Example 32, 4-Ethyl-7-hydroxycoumarin benzenesulfonate] has an IC50 of 0.12 µM.
Work on `CCc1c(C)c2ccc(OS(=O)(=O)c3ccc(Cl)cc3)cc2oc1=O` [Example 34, 3-Ethyl-7-hydroxy-4-methylcoumarin 4'-chlorobenzenesulfonate] yielded an IC50 of 0.023 µM.
`CCCc1c(C)c2ccc(OS(=O)(=O)c3ccc(Cl)cc3)cc2oc1=O` [Example 37, 7-Hydroxy-4-methyl-3-propylcoumarin 4'-chlorobenzenesulfonate] showed an IC50 of 0.067 µM.
`Cc1cc(=O)oc2cc(OS(=O)(=O)c3ccc(Cl)cc3)ccc12` [Example 40, 7-Hydroxy-4-methylcoumarin 4'-chlorobenzenesulfonate] gave an IC50 of 0.0065 µM.
`Cc1cc(=O)oc2cc(OS(C)(=O)=O)ccc12` [Example 42, 7-Hydroxy-4-methylcoumarin methanesulfonate] gave an IC50 of 0.13 µM.
`CC(C)S(=O)(=O)Oc1ccc2ccc(=O)oc2c1` [Example 45, 7-Hydroxycoumarin isopropanesulfonate] showed an IC50 of 0.16 µM.
Compound `COC(=O)Cc1c(C)c2ccc(OS(=O)(=O)c3ccc(Br)cc3)cc2oc1=O` [Example 48, 7-Hydroxy-3-carbomethoxymethyl-4-methylcoumarin 4'-bromobenzenesulfonate] has an IC50 of 0.022 µM.
In the case of `CCOC(=O)c1cc2ccc(OS(=O)(=O)c3ccc(Cl)cc3)cc2oc1=O` [Example 50, 7-Hydroxy-3-carboethoxycoumarin 4'-chlorobenzenesulfonate], the IC50 is reported as 0.54 µM.
With `CCOC(=O)c1cc2ccc(OS(=O)(=O)c3ccc([N+](=O)[O-])cc3)cc2oc1=O` [Example 51, 7-Hydroxy-3-carboethoxycoumarin 4'-nitrobenzenesulfonate] the IC50 was 0.54 µM.
`Cc1c(C)c2ccc(OS(=O)(=O)CC(C)C)cc2oc1=O` [Example 52, 7-Hydroxy-3,4-dimethylcoumarin 2'-methylpropanesulfonate] gave an IC50 of 0.0057 µM.
Compound `Cc1c(Cl)c(=O)oc2cc(OS(=O)(=O)C(C)C)ccc12` [Example 60, 7-Hydroxy-3-chloro-4-methylcoumarin isopropanesulfonate] has an IC50 of 0.014 µM.

The compounds below were run on reserpine-induced hypothermia (assay: Antidepressant action: inhibition of reserpine-induced hypothermia (reserpine test)). Settings: Mus musculus, po, 2 h, read-out: Antidepressant action (mouse) ED50.
Type: in vivo, mouse (male, Swiss strain)
Method: The test substances are administered orally, 60 minutes before the reserpine.
`Cc1cc(=O)oc2cc(OS(=O)(=O)c3ccc(Cl)cc3)ccc12` [Example 40, 7-Hydroxy-4-methylcoumarin 4'-chlorobenzenesulfonate] was tested, and the ED50 was 8.7 mg/kg.

Same assay, conditions: oral administration, 60 minutes before reserpine 2.15 mg/kg s.c.; mouse; temperature 2 hours after; read-out: Antidepressant action (mouse) ED50
`Cc1c(C)c2ccc(OS(C)(=O)=O)cc2oc1=O` [Example 2, 7-Hydroxy-3,4-dimethylcoumarin methanesulfonate] gave an ED50 of 5.9 mg/kg.
`Cc1c(C)c2ccc(OS(=O)(=O)c3ccc4ccccc4c3)cc2oc1=O` [Example 4, 7-Hydroxy-3,4-dimethylcoumarin naphthalene-2'-sulfonate] gave an ED50 of 4 mg/kg.
Work on `Cc1c(C)c2ccc(OS(=O)(=O)c3ccc(Cl)cc3)cc2oc1=O` [Example 9, 7-Hydroxy-3,4-dimethylcoumarin 4'-chlorobenzenesulfonate] yielded an ED50 of 6.1 mg/kg.
With `Cc1c(C)c2ccc(OS(=O)(=O)c3ccc(Br)cc3)cc2oc1=O` [Example 11, 7-Hydroxy-3,4-dimethylcoumarin 4'-bromobenzenesulfonate] the ED50 was 2.5 mg/kg.
Work on `Cc1c(C)c2ccc(OS(=O)(=O)c3ccc(F)cc3)cc2oc1=O` [Example 14, 7-Hydroxy-3,4-dimethylcoumarin 4'-fluorobenzenesulfonate] yielded an ED50 of 1.4 mg/kg.
`Cc1c(C)c2ccc(OS(=O)(=O)c3ccc(C#N)cc3)cc2oc1=O` [Example 18, 7-Hydroxy-3,4-dimethylcoumarin 4'-cyanobenzenesulfonate] was tested, and the ED50 was 3.6 mg/kg.
In the case of `CCCS(=O)(=O)Oc1ccc2c(C)c(C)c(=O)oc2c1` [Example 22, 7-Hydroxy-3,4-dimethylcoumarin propanesulfonate], the ED50 is reported as 1.4 mg/kg.
`Cc1c(C)c2ccc(OS(=O)(=O)C(C)C)cc2oc1=O` [Example 23, 7-Hydroxy-3,4-dimethylcoumarin isopropanesulfonate] was tested, and the ED50 was 3.1 mg/kg.
Work on `Cc1c(C)c2ccc(OS(=O)(=O)C(F)(F)F)cc2oc1=O` [Example 24, 7-Hydroxy-3,4-dimethylcoumarin trifluoromethanesulfonate] yielded an ED50 of 3.7 mg/kg.
Compound `CCCCS(=O)(=O)Oc1ccc2c(C)c(C)c(=O)oc2c1` [Example 26, 7-Hydroxy-3,4-dimethylcoumarin butanesulfonate] has an ED50 of 1.8 mg/kg.
Compound `Cc1cc2ccc(OS(=O)(=O)c3ccc(Cl)cc3)cc2oc1=O` [Example 30, 7-Hydroxy-3-methylcoumarin 4'-chlorobenzenesulfonate] has an ED50 of 9 mg/kg.
In the case of `CCCCCS(=O)(=O)Oc1ccc2c(C)c(C)c(=O)oc2c1` [Example 38, 7-Hydroxy-3,4-dimethylcoumarin pentanesulfonate], the ED50 is reported as 1.4 mg/kg.
In the case of `CCS(=O)(=O)Oc1ccc2c(C)c(C)c(=O)oc2c1` [Example 39, 7-Hydroxy-3,4-dimethylcoumarin ethanesulfonate], the ED50 is reported as 1.7 mg/kg.
`Cc1cc(=O)oc2cc(OS(=O)(=O)c3ccccc3)ccc12` [Example 41, 7-Hydroxy-4-methylcoumarin benzenesulfonate] was tested, and the ED50 was 29.7 mg/kg.
For `Cc1cc(=O)oc2cc(OS(C)(=O)=O)ccc12` [Example 42, 7-Hydroxy-4-methylcoumarin methanesulfonate], the ED50 was 19.6 mg/kg.
`CNS(=O)(=O)Oc1ccc2c(C)c(C)c(=O)oc2c1` [Example 43, 7-Hydroxy-3,4-dimethylcoumarin N-methylamidosulfonate] showed an ED50 of 1.9 mg/kg.
`Cc1c(C)c2ccc(OS(=O)(=O)CC(C)C)cc2oc1=O` [Example 52, 7-Hydroxy-3,4-dimethylcoumarin 2'-methylpropanesulfonate] was tested, and the ED50 was 0.3 mg/kg.
`Cc1c(C)c2ccc(OS(=O)(=O)CCCCl)cc2oc1=O` [Example 55, 7-Hydroxy-3,4-dimethylcoumarin 3'-chloropropanesulfonate] showed an ED50 of 1.3 mg/kg.
Work on `Cc1c(C)c2ccc(OS(=O)(=O)CCl)cc2oc1=O` [Example 56, 7-Hydroxy-3,4-dimethylcoumarin chloromethanesulfonate] yielded an ED50 of 3.4 mg/kg.
`Cc1c(C)c2ccc(OS(=O)(=O)c3cccc([N+](=O)[O-])c3)cc2oc1=O` [Example 57, 7-Hydroxy-3,4-dimethylcoumarin 3'-nitrobenzenesulfonate] showed an ED50 of 1.5 mg/kg.

Source: patent US4618622A, “Sulfonates of hydroxycoumarins” (priority 1982, dated 1986)
